Experimental data published in ChEMBL document CHEMBL1143792, “Natural dibenzoxazepinones from leaves of Carex distachya: Structural elucidation and radical scavenging activity” (Bioorg Med Chem Lett, 2007).

Legend:
[1] = Nitric oxide radical scavenging activity at 0.1 mg/ml; type: functional
[2] = DPPH radical scavenging activity at 0.1 mg/ml; type: functional

SMILES	Activity [1] [%]	Activity [2] [%]
O=C1O[C@H]([C@@H](O)CO)C(O)=C1O	66	
COc1cc2c(c(O)c1C)C(=O)Nc1ccc(O)cc1O2	59	
COc1cc2c(c(OC)c1C)C(=O)Nc1ccc(O)c(C)c1O2	63	25
